The values below come from paper PMC9448386, “Discovery of novel conjugates of quinoline and thiazolidinone urea as potential anti-colorectal cancer agent” (Journal of Enzyme Inhibition and Medicinal Chemistry, 2022).

In one data set the target is ABL (Homo sapiens, UniProt P00519). Briefly: Mobility shift assay, ABL. Conditions: mean of two independent experiments, SD shown. The class given is biochemical. On the procedure:
(§1) Kinase inhibitory activity against HGFR, MST1R, ABL, PDGFRβ, AXL, FLT3, RET, c-Src, and VEGFR-2 was evaluated by the mobility shift assay. Detailed operation could be found in our previous research.

Data set [1] is described as follows: MTT assay, cytotoxicity against FHC cells. The data set is classed as cell-based. Conditions: FHC cells (normal colorectal mucosa epithelial cells); human normal colorectal mucosa epithelial cells; average of three separate determinations. On the procedure: In order to investigate the cell selectivity index, the cytotoxicity of potent compounds against human normal colorectal mucosa epithelial cell FHC cells was determined.
(§2) Taking lead compound BC2021-104511-15i, Fruquintinib and Regorafenib as positive controls, the cytotoxic activity against HT-29, HCT-116, COLO-205 and FHC cell lines by MTT assay. Detailed operation could be found in our previous study.

In the next data set the target is HGFR (Homo sapiens, UniProt P08581). Briefly: Mobility shift assay, HGFR kinase inhibition. The data set is classed as biochemical. Conditions: mean of two independent experiments. On the procedure: as §1
HGFR, sequence (P08581 25-1390): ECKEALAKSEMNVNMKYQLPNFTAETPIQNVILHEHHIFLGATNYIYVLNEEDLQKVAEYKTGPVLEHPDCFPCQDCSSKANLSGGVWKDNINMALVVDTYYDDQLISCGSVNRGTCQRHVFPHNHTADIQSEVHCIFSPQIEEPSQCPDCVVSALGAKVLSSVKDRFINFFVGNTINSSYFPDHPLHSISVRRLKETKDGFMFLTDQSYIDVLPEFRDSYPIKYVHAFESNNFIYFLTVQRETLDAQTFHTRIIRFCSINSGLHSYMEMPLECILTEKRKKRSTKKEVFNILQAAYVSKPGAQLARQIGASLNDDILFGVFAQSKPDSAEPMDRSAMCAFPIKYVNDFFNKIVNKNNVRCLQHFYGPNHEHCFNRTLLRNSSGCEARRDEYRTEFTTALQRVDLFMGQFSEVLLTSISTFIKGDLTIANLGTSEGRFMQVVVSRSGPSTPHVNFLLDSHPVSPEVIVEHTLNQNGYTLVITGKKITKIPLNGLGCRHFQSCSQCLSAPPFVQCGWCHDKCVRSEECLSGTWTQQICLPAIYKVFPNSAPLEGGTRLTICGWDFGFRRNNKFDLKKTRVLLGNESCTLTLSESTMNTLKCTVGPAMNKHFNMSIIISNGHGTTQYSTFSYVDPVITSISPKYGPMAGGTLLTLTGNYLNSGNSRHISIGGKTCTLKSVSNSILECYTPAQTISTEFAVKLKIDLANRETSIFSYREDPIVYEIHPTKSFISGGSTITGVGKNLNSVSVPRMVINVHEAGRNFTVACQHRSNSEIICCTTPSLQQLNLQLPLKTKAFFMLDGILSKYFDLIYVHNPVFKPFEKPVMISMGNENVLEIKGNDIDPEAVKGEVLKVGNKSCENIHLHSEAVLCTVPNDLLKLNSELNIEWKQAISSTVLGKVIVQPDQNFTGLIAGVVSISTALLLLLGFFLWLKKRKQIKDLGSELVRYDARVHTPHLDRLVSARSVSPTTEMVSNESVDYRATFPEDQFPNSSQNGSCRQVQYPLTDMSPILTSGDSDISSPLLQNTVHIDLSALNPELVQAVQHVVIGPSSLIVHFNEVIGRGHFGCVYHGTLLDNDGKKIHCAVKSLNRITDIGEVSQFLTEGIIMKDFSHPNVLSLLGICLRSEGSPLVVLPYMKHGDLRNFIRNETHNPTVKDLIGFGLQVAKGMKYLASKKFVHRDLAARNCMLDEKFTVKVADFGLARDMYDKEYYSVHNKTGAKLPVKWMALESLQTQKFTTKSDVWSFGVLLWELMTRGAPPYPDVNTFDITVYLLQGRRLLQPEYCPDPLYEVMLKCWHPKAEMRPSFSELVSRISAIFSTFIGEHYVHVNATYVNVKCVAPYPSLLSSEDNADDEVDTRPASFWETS
The next data set addresses MST1R (Homo sapiens, UniProt Q04912). Briefly: Mobility shift assay, MST1R kinase inhibition. Conditions: mean of two independent experiments. The class given is biochemical. Here is the method: as §1
The target in another data set is VEGFR-2 (Homo sapiens, UniProt P35968). Put plainly: Mobility shift assay, VEGFR-2. The class given is biochemical. The conditions noted are these: mean of two independent experiments, SD shown. Here is the method:
as §1

The target in another data set is RET (Homo sapiens, UniProt P07949). Briefly: Mobility shift assay, RET. The data set is classed as biochemical. The conditions noted are these: mean of two independent experiments, SD shown. On the procedure:
as §1

Another data set concerns the target T1, FLT3 (Homo sapiens, UniProt P36888).
T1 sequence (P36888 27-993): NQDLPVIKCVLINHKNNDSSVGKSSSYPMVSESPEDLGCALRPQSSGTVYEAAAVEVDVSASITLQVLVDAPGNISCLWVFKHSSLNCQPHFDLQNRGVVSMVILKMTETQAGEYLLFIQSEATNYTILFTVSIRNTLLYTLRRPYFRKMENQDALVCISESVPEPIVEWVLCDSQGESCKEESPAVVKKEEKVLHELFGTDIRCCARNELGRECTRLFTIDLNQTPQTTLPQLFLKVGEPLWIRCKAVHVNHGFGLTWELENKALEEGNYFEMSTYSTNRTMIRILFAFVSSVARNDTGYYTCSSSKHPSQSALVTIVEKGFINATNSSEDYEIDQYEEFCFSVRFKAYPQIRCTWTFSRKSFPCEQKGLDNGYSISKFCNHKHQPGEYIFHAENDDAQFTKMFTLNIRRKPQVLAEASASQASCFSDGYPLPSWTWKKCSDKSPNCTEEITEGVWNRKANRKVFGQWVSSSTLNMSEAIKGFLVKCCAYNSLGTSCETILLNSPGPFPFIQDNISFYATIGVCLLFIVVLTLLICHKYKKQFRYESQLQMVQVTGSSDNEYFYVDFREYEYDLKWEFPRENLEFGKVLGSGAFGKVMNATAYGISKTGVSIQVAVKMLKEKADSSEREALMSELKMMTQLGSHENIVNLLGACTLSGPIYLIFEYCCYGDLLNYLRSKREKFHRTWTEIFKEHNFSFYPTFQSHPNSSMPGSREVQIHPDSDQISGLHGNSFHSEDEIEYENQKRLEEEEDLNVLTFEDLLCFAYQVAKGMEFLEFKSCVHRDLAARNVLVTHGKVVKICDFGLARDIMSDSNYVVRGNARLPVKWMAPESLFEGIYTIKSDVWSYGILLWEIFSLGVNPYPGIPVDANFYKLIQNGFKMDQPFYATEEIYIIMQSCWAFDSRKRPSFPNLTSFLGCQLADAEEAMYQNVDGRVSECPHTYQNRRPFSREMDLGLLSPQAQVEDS
Briefly: Mobility shift assay, FLT3. The class given is biochemical. The conditions noted are these: mean of two independent experiments, SD shown. On the procedure:
as §1

The test system of a further data set is HT-29 cells. Briefly: MTT assay, cytotoxic activity against HT-29. The conditions noted are these: Homo sapiens, HT-29, average of three separate determinations, SD shown. The class given is cell-based, human.
Description: as §2
(In general: Formazan colour is commonly taken as a measure of viable cells.)

In another data set the test system is COLO 205 cells. Briefly: MTT assay, cytotoxic activity against COLO 205. The class given is cell-based.
Description: as §2

In the next data set the target is c-Src (Homo sapiens, UniProt P12931). Put plainly: Mobility shift assay, c-Src. The data set is classed as biochemical. Conditions: mean of two independent experiments, SD shown. On the procedure:
as §1

The next data set concerns the target T2, AXL (Homo sapiens, UniProt P30530).
T2 sequence (P30530 26-894): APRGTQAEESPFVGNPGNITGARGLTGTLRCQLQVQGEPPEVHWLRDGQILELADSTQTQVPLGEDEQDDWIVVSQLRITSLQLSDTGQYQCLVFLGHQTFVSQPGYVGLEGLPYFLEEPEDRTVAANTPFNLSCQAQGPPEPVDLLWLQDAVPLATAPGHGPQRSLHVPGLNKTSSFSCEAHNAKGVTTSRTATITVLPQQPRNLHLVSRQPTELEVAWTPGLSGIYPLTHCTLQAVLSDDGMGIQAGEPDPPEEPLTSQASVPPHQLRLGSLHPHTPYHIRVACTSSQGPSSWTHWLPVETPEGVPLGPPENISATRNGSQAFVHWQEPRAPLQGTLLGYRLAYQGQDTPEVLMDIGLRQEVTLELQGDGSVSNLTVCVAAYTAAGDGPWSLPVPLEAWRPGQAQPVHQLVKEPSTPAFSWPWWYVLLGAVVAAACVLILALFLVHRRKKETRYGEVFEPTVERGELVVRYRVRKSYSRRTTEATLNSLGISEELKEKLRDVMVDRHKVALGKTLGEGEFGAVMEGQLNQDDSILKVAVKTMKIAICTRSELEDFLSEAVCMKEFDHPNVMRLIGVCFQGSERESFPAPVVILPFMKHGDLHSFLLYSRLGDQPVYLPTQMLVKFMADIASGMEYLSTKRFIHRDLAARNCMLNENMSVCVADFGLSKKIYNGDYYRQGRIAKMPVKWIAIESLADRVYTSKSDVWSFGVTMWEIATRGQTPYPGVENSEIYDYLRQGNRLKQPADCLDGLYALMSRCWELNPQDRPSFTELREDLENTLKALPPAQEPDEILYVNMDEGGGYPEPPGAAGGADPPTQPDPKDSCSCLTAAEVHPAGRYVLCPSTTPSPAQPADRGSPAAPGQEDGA
Briefly: Mobility shift assay, AXL. The data set is classed as biochemical. Conditions: mean of two independent experiments, SD shown. Here is the method: as §1

ABL, sequence (P00519 whole entry): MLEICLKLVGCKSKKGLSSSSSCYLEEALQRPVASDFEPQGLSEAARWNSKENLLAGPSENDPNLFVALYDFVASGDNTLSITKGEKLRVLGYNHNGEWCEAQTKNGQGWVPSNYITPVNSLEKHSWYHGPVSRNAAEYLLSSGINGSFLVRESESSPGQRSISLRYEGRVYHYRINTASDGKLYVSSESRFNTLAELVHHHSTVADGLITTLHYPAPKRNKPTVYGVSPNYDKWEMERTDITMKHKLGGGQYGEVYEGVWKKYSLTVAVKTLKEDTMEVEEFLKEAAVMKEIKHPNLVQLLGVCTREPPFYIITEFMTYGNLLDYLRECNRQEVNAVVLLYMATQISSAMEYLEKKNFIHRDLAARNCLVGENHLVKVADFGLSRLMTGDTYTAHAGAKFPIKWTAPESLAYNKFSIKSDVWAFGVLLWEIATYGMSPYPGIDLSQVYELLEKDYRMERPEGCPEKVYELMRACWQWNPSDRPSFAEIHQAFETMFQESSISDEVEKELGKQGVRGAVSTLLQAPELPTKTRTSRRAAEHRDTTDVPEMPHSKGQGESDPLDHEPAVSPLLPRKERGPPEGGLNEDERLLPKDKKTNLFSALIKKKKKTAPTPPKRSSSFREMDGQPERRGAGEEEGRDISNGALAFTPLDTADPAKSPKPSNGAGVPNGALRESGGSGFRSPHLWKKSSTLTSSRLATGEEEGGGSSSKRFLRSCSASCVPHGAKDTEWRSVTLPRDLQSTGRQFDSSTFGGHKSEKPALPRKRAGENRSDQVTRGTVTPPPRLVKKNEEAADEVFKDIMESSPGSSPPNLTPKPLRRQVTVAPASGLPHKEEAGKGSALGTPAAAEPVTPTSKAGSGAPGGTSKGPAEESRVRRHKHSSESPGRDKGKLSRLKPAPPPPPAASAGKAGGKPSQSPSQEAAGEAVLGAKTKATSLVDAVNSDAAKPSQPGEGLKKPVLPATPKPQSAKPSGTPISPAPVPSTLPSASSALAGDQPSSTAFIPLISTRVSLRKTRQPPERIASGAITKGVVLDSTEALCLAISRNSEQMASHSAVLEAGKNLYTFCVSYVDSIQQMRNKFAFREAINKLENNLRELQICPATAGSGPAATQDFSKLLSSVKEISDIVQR
c-Src, sequence (P12931 whole entry): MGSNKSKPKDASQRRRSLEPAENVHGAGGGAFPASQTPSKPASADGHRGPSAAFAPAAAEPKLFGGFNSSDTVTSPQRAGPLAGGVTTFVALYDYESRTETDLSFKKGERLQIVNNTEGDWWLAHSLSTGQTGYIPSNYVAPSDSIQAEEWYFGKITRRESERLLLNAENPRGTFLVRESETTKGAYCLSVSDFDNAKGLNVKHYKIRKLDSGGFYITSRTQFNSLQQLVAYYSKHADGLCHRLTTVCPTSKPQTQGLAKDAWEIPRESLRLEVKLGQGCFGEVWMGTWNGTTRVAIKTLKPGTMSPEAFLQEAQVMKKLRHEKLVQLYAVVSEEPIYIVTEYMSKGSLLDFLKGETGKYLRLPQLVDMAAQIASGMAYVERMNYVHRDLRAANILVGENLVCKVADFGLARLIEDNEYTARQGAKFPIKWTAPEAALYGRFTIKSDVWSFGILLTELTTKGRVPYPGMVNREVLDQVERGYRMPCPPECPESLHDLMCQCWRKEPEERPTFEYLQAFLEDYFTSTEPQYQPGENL
RET, sequence (P07949 29-1114): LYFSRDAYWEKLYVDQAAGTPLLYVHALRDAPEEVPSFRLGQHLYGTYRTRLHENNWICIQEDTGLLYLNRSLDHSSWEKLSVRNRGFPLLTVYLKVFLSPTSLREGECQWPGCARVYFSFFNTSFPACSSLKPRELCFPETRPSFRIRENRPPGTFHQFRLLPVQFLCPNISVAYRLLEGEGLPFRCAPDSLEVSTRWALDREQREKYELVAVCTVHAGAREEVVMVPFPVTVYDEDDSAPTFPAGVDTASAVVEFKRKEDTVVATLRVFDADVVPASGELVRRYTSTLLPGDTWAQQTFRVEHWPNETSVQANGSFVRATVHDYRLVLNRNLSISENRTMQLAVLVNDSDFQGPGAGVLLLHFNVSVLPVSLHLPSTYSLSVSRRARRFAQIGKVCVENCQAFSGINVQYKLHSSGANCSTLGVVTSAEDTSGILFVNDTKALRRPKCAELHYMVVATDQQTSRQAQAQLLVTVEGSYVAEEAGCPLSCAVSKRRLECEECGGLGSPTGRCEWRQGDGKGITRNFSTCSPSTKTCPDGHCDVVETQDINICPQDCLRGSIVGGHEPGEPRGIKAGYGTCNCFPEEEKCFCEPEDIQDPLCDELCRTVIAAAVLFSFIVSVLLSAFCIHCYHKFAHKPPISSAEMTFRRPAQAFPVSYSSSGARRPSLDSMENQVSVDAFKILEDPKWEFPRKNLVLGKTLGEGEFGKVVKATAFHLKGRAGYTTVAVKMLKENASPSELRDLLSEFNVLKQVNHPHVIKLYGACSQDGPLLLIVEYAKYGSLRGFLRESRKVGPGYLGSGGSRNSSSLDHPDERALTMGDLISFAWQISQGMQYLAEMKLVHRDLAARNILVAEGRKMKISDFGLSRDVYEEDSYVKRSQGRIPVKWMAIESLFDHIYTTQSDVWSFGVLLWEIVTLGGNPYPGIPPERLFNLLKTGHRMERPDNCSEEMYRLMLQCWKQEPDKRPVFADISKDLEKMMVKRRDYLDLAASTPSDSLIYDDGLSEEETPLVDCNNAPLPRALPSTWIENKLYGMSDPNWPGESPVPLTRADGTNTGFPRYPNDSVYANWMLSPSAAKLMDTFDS

As a reminder, the IC50 is the concentration that inhibits the measured activity by half. Turning to `COc1cc2c(Oc3ccc(NC(=O)NN4C(=O)CSC4c4c(F)cccc4F)cc3F)ccnc2cc1OC1CCN(CC(N)=O)CC1` (stereo not shown) [Compound 10a, 2–(4-((4–(4-(3–(2-(2,6-Difluorophenyl)-4-oxothiazolidin-3-yl)ureido)-2-fluorophenoxy)-6-methoxyquinolin-7-yl)oxy)piperidin-1-yl)acetamide], the IC50 on ABL was 1680 ± 130 nM; in [1], greater than 10000 nM; at HGFR it was 110 nM; on MST1R, 45 nM; on VEGFR-2 it was 1160 ± 110 nM; at RET it was 1270 ± 100 nM. In addition, the half-inhibitory concentration (IC50) is 6930 ± 730 nM on FLT3; 1300 ± 110 nM in the data set with HT-29 cells; 110 ± 24 nM in the data set on COLO 205 cells (Homo sapiens, COLO 205, MTT, average of three separate determinations, SD shown); 420 ± 35 nM at c-Src; 950 ± 86 nM at AXL. In addition, the “fold more potent than Regorafenib and Fruquintinib against COLO 205” value in the data set with COLO 205 cells (COLO 205 IC50 compared with Regorafenib and Fruquintinib) was “over 90 fold”. Also, the “cell selectivity index (FHC IC50 value vs COLO 205 IC50 value)” value in the data set with COLO 205 cells (COLO 205 relative to FHC cells) is on record as “over 90 fold”.
